Measurements as given in US9963462B2 (priority 2015, dated 2018).

Experiments:
[1] = test system: BH4 levels in SK-N-BE (2) cells; test: SKN-N-BE (2) cellular assay, BH4 levels by LC-MS; assay type: cell-based; details: Homo sapiens, SKNBE2, read-out: SK-N-BE(2) IC50, SK-N-BE (2) cells, BH4 levels by LC-MS
[2] = target: SNAP-hSPR (sepiapterin reductase, SPR) (Homo sapiens, UniProt P35270); test: biochemical; assay type: binding; details: terbium labelled SNAP-hSPR / SSZ labelled SNAP-EGFP; read-out: hTR-FRET IC50
Sequence of SNAP-hSPR (sepiapterin reductase, SPR) (P35270 whole entry): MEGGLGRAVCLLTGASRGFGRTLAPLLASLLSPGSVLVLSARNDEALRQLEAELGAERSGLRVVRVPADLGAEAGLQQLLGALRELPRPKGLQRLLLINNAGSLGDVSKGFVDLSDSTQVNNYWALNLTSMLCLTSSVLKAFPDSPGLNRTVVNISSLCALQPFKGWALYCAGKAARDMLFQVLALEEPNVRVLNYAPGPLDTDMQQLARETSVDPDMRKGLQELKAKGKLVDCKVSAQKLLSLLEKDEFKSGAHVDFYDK

## Cc1c(C(=O)N2CC[C@@H]3CN(C(=O)OC(C)(C)C)[C@@H]3C2)cnn1-c1nn2cccc2c(=O)[nH]1 [Q-0788]
[1]
  IC50: 3600 nM
[2]
  IC50: 10 nM

## Cc1c(C(=O)N2CC3CC3(O)C2)cnn1-c1nc2sccc2c(=O)[nH]1 (stereo not drawn) [Q-0617]
[1]
  IC50: 3000 nM
[2]
  IC50: 20 nM

## Cc1cc(=O)[nH]c(-n2ncc(C(=O)NCCC(F)(F)F)c2C)n1 [Q-0367]
[1]
  IC50: 11000 nM
[2]
  IC50: 70 nM

## Cc1cc(=O)[nH]c(-n2ncc(C(=O)N(C)Cc3ccccc3)c2C)n1 [Q-0318]
[1]
  IC50: 2100 nM
[2]
  IC50: 6 nM

## O=C(c1ccn(-c2nc3ccsc3c(=O)[nH]2)n1)N1CCc2ccccc2C1 [Q-0388]
[1]
  IC50: 36000 nM
[2]
  IC50: 100 nM

## O=C(c1cnn(-c2nc3c(c(=O)[nH]2)CCC3)c1)N1CCC2(CC1)CC2 [Q-0705]
[1]
  IC50: 43 nM
[2]
  IC50: 2 nM

## Cc1c(C(=O)N2CCC3(CN(C(=O)OC(C)(C)C)C3)C2)cnn1-c1nn2cccc2c(=O)[nH]1 [Q-0748]
[1]
  IC50: 900 nM
[2]
  IC50: 4 nM

## Cc1c(C(=O)N2CCC3OCCCC3C2)cnn1-c1nc2c(c(=O)[nH]1)CCC2 (stereo not drawn) [Q-0576]
[1]
  IC50: 100 nM
[2]
  IC50: 6 nM

## Cc1c(C(=O)N2CCC3(CC2)CC3c2nnc(-c3ccccc3)o2)cnn1-c1nc2c(c(=O)[nH]1)CCC2 (stereo not drawn) [Q-0697]
[1]
  IC50: 200 nM
[2]
  IC50: 4 nM

## Cc1c(C(=O)N2CCN(c3ccc(Cl)c(Cl)c3)CC2)cnn1-c1nn2cccc2c(=O)[nH]1 [Q-0828]
[1]
  IC50: 50 nM
[2]
  IC50: 4 nM

## Cc1cc(=O)[nH]c(-n2ncc(C(=O)N3CCCC(C(F)(F)F)C3)c2C)n1 (stereo not drawn) [Q-0368]
[1]
  IC50: 2900 nM
[2]
  IC50: 10 nM

## Cc1c(C(=O)N2CCN(C)c3ccccc32)cnn1-c1nn2cccc2c(=O)[nH]1 [Q-0759]
[1]
  IC50: 200 nM
[2]
  IC50: 1 nM

## O=C(c1ccnc(-c2nc3c(c(=O)[nH]2)CCC3)c1)N1CCC(C(F)(F)F)CC1 [Q-0508]
[1]
  IC50: 2000 nM
[2]
  IC50: 30 nM

## Cc1c(C(=O)N2CCC(c3c[nH]c4ccccc34)CC2)ccnc1-c1nc2ccsc2c(=O)[nH]1 [Q-0594]
[1]
  IC50: 3600 nM
[2]
  IC50: 300 nM

## Cc1c(C(=O)N2CCC(S(=O)(=O)c3ccccc3)CC2)cnn1-c1nc2c(c(=O)[nH]1)CCC2 [Q-0504]
[1]
  IC50: 58 nM
[2]
  IC50: 4 nM

## Cc1c(C(=O)N2CCN(c3ccccn3)CC2)cnn1-c1nn2cccc2c(=O)[nH]1 [Q-0843]
[1]
  IC50: 200 nM
[2]
  IC50: 1 nM

## Cc1c(C(=O)N2CCC(c3c[nH]c4ccccc34)CC2)cnn1-c1nc2sccc2c(=O)[nH]1 [Q-0573]
[1]
  IC50: 35 nM
[2]
  IC50: 3 nM

## O=C(O)c1ccnc(-c2nc3c(c(=O)[nH]2)CCC3)c1 [Q-0558]
[1]
  IC50: 10000 nM
[2]
  IC50: 5000 nM

## Cc1cc(=O)[nH]c(-n2ncc(C(=O)N3CCc4cn[nH]c4C3)c2C)n1 [Q-0328]
[1]
  IC50: 53000 nM
[2]
  IC50: 10 nM

## Cc1c(C(=O)N2CCC(c3nc4ccccc4s3)CC2)cnn1-c1nc2c(c(=O)[nH]1)CCC2 [Q-0499]
[1]
  IC50: 44 nM
[2]
  IC50: 20 nM

## Cc1c(C(=O)N2CC(CNC(=O)OC(C)(C)C)C2)cnn1-c1nc2ccsc2c(=O)[nH]1 [Q-0582]
[1]
  IC50: 1000 nM
[2]
  IC50: 20 nM

## Cc1cc(=O)[nH]c(-n2ccc(C(=O)NC3CCCC3)n2)n1 [Q-0333]
[1]
  IC50: 12000 nM
[2]
  IC50: 20 nM

## Cc1c(C(=O)N2CCC(C(F)(F)F)CC2)ccnc1-c1nc2ccsc2c(=O)[nH]1 [Q-0564]
[1]
  IC50: 4000 nM
[2]
  IC50: 200 nM

## Cc1cc(=O)[nH]c(-n2ncc(C(=O)N3CCc4ccc(C(F)(F)F)cc4C3)c2C)n1 [Q-0298]
[1]
  IC50: 1500 nM
[2]
  IC50: 20 nM

## Cc1ccc(C2(C)CN(C(=O)c3cnn(-c4nc5c(c(=O)[nH]4)CCC5)c3C)CCO2)cc1 (stereo not drawn) [Q-0501]
[1]
  IC50: 200 nM
[2]
  IC50: 9 nM

## Cc1c(C(=O)N2CCC3(CC2)OCCO3)cnn1-c1nn2cccc2c(=O)[nH]1 [Q-0795]
[1]
  IC50: 500 nM
[2]
  IC50: 2 nM

## Cc1c(C(=O)N(Cc2ccccc2)[C@@H](C)c2ccccc2)cnn1-c1nc2c(c(=O)[nH]1)CCC2 [Q-0493]
[1]
  IC50: 29 nM
[2]
  IC50: 30 nM

## O=C(c1cnn(-c2nc3ccsc3c(=O)[nH]2)c1)N1CCC(c2c[nH]c3ccccc23)CC1 [Q-0527]
[1]
  IC50: 45 nM
[2]
  IC50: 30 nM

## O=C(c1cnn(-c2nn3cccc3c(=O)[nH]2)c1)N1CCC(c2nc3ccccc3s2)CC1 [Q-0537]
[1]
  IC50: 200 nM
[2]
  IC50: 40 nM

## Cc1c(C(=O)N2CC3COCC(C3)C2)cnn1-c1nc2c(c(=O)[nH]1)CCC2 [Q-0569]
[1]
  IC50: 300 nM
[2]
  IC50: 10 nM

## Cc1c(C(=O)N2c3ccccc3C[C@H]2C)cnn1-c1nc2ccsc2c(=O)[nH]1 (single isomer, unassigned) [Q-0414]
[1]
  IC50: 300 nM
[2]
  IC50: 6 nM

## Cc1c(C(=O)N2CCC(C#N)(c3ccccc3)CC2)cnn1-c1nc2c(c(=O)[nH]1)CCC2 [Q-0473]
[1]
  IC50: 92 nM
[2]
  IC50: 6 nM

## Cc1c(C(=O)N2CCN(C(=O)OCc3ccccc3)C(C)C2)cnn1-c1nc2c(c(=O)[nH]1)CCC2 (stereo not drawn) [Q-0507]
[1]
  IC50: 200 nM
[2]
  IC50: 10 nM

## Cc1c(C(=O)N2C3CCC2CN(c2ccc(C(F)(F)F)cn2)C3)cnn1-c1nn2cccc2c(=O)[nH]1 [Q-0854]
[1]
  IC50: 200 nM
[2]
  IC50: 3 nM

## Cc1c(C(=O)N(C)Cc2ccc3ncccc3c2)cnn1-c1nc2c(c(=O)[nH]1)CCC2 [Q-0506]
[1]
  IC50: 200 nM
[2]
  IC50: 3 nM

## O=C(c1cnn(-c2nc3c(c(=O)[nH]2)CCC3)c1)N1CCC(C2CC2)CC1 [Q-0706]
[1]
  IC50: 30 nM
[2]
  IC50: 2 nM

## Cc1cc(=O)[nH]c(-n2ncc(C(=O)N3CCc4ccccc4C3)c2C(C)C)n1 [Q-0319]
[1]
  IC50: 2200 nM
[2]
  IC50: 10 nM

## O=C(c1cnn(-c2cc3ccsc3c(=O)[nH]2)c1)N1CCC(C(F)(F)F)CC1 [Q-0511, 5-{4-[4-(trifluoromethyl)piperidine-1-carbonyl]-1H-pyrazol-1-yl}-6H,7H-thieno[2,3-c]pyridin-7-one]
[1]
  IC50: 300 nM
[2]
  IC50: 3 nM

## Cc1[nH]c2ccccc2c1C1CCN(C(=O)c2cnn(-c3nc4c(c(=O)[nH]3)CCC4)c2C)CC1 [Q-0611]
[1]
  IC50: 29 nM
[2]
  IC50: 4 nM

## Cc1c(C(=O)N2CC(CN)C2)cnn1-c1nc2ccsc2c(=O)[nH]1 [Q-0583]
[1]
  IC50: 3700 nM
[2]
  IC50: 100 nM

## Cc1cc(=O)[nH]c(-n2ncc(C(=O)N3Cc4ccccc4C3)c2C)n1 [Q-0302]
[1]
  IC50: 1200 nM
[2]
  IC50: 9 nM

## Cc1nc(-n2ncc(C(=O)N3c4ccccc4CC3C)c2C)[nH]c(=O)c1C (stereo not drawn) [Q-0404]
[1]
  IC50: 4300 nM
[2]
  IC50: 40 nM

## O=C(c1cnn(-c2nn3c(F)ccc3c(=O)[nH]2)c1)N1CCC(CC(F)(F)F)CC1 [Q-0758]
[1]
  IC50: 90 nM
[2]
  IC50: 2 nM

## Cc1c(C(=O)N2CCC3(CCCC3)C2)cnn1-c1nn2cccc2c(=O)[nH]1 [Q-0808]
[1]
  IC50: 200 nM
[2]
  IC50: 1 nM

## Cc1nn(-c2nc3ccsc3c(=O)[nH]2)c(C)c1C(=O)N1CCc2ccccc2C1 [Q-0458]
[1]
  IC50: 400 nM
[2]
  IC50: 6 nM

## O=C(c1ccc(-c2nc3c(c(=O)[nH]2)CCC3)s1)N1CCC(C(F)(F)F)CC1 [Q-0609, 2-(5-(4-(trifluoromethyl)piperidine-1-carbonyl)thiophen-2-yl)-6,7-dihydro-3H-cyclopenta[d]pyrimidin-4(5H)-one]
[1]
  IC50: 84 nM
[2]
  IC50: 1 nM

## Cc1c(C(=O)N2C3CCC2CN(C(=O)OC(C)(C)C)C3)cnn1-c1nn2cccc2c(=O)[nH]1 [Q-0739]
[1]
  IC50: 300 nM
[2]
  IC50: 2 nM

## Cc1cc(=O)[nH]c(-n2ccc(C(=O)N3CCc4ccccc43)n2)n1 [Q-0376]
[1]
  IC50: 8200 nM
[2]
  IC50: 30 nM
